According to US9120791B2, “Indolizine compounds, a process for their preparation and pharmaceutical compositions containing them” (LES LABORATOIRES SERVIER, priority 2012, dated 2015):
Where a name gives a salt, the structure may show the parent alone. Read-outs that look alike come from different tables or passages of the source.

Assays:
[1] = tested on: RS4;11 leukaemia tumour line; assay: In vitro cytotoxicity (Microculture Tetrazolium Assay, 48 hours); assay type: cell-based; conditions: read-out: IC50 (nM) MTT RS4
Procedure: The cytotoxicity studies were carried out on the RS4;11 leukaemia tumour line.
The cells are distributed onto microplates and exposed to the test compounds for 48 hours.

Bcl-2 protein = Bcl-2 protein (Homo sapiens (Human), UniProt P10415); assay: Inhibition of Bcl-2 by the fluorescence polarisation technique; assay type: binding; conditions: fluorescence polarisation test; concentration that inhibits fluorescence polarisation by 50%; read-out: IC50 (nM) Bcl-2 FP
Sequence of Bcl-2 protein (P10415 whole entry): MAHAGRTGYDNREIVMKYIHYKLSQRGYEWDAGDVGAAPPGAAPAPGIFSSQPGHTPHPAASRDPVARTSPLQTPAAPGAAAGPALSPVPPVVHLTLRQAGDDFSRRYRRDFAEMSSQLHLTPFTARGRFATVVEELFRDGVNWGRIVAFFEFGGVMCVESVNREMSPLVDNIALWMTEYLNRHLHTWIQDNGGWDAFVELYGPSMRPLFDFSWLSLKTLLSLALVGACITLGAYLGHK
Procedure: The fluorescence polarisation tests were carried out on microplates (384 wells). […] After incubation for 2 hours, the fluorescence polarisation is measured.

[2] = Homo sapiens, RS4;11 cells, 48 hours exposure, MTT, concentration that inhibits cell viability by 50%

IC50 (Bcl-2 protein) [nM] | Structure (SMILES) | IC50 [1, 2] [nM] | IC50 ([1]; Homo sapiens, RS4-11, 48 h) [nM] | IC50 ([1]; RS4;11 cells, 48 hours exposure, MTT, concentration that inhibits cell viability by 50%) [nM]
12 | CN1CCN(C[C@@H]2Cc3ccccc3CN2C(=O)c2cc3c(cc2-c2cc(C(=O)N(c4ccc(O)cc4)c4ccc5c(ccn5C)c4)c4n2CCCC4)OCO3)CC1 [Example 13, N-(4-Hydroxyphenyl)-N-(1-methyl-1H-indol-5-yl)-3-{6-[((3S)-3-[(4-methyl-1-piperazinyl)methyl]-3,4-dihydro-2(1H)-isoquinolinyl)carbonyl]-1,3-benzodioxol-5-yl}-5,6,7,8-tetrahydro-1-indolizine carboxamide bis(hydrochloride)] | 8.63 | – | –
8 | Cc1ccc(N(C(=O)c2cc(-c3cc(F)ccc3C(=O)N3Cc4ccccc4C[C@H]3CN3CCOCC3)n3c2CCCC3)c2ccc(O)cc2)cc1F [Example 91, N-(3-Fluoro-4-methylphenyl)-3-(5-fluoro-2-{[(3S)-3-(morpholin-4-ylmethyl)-3,4-dihydroisoquinolin-2(1H)-yl]carbonyl}phenyl)-N-(4-hydroxyphenyl)-5,6,7,8-tetrahydroindolizine-1-carboxamide hydrochloride] | 65.5 | – | –
16 | O=C(c1cc(-c2cc3c(cc2C(=O)N2Cc4ccccc4C[C@H]2CN2CCOCC2)OCO3)n2c1CC(O)CC2)N(c1ccccc1)c1ccc(O)cc1 (stereo partly drawn) [Example 113, 7-Hydroxy-N-(4-hydroxyphenyl)-3-(6-{[(3S)-3-(morpholin-4-ylmethyl)-3,4-dihydroisoquinolin-2(1H)-yl]carbonyl}-1,3-benzodioxol-5-yl)-N-phenyl-5,6,7,8-tetrahydroindolizine-1-carboxamide hydrochloride] | 190 | – | –
31 | CC(C)N1CCc2cc(N(C(=O)c3cc(-c4cc5c(cc4C(=O)N4Cc6ccccc6C[C@H]4CN4CCOCC4)OCO5)n4ccccc34)c3ccc(O)cc3)ccc21 [Example 64, N-(4-Hydroxyphenyl)-N-(1-isopropyl-2,3-dihydro-1H-indol-5-yl)-3-{6-[((3S)-3-(4-morpholinylmethyl)-3,4-dihydro-2(1H)-isoquinolinyl)carbonyl]-1,3-benzodioxol-5-yl}-1-indolizine carboxamide hydrochloride] | 23.3 | – | –
35 | O=C(c1cc(-c2cc(Cl)ccc2C(=O)N2Cc3ccccc3C[C@H]2CN2CCOCC2)n2c1CCCC2)N(c1ccccc1)c1ccc(O)cc1 [Example 20, 3-{5-Chloro-2-[((3S)-3-(4-morpholinylmethyl)-3,4-dihydro-2(1H)-isoquinolinyl)carbonyl]phenyl}-N-(4-hydroxyphenyl)-N-phenyl-5,6,7,8-tetrahydro-1-indolizine carboxamide hydrochloride] | 105 | – | –
26 | Cc1cccc(N(C(=O)c2cc(-c3cc(Cl)ccc3C(=O)N3Cc4ccccc4C[C@H]3CN3CCOCC3)n3c2CCCC3)c2ccc(O)cc2)c1 [Example 126, 3-(5-Chloro-2-{[(3S)-3-(morpholin-4-ylmethyl)-3,4-dihydroisoquinolin-2(1H)-yl]carbonyl}phenyl)-N-(4-hydroxyphenyl)-N-(3-methylphenyl)-5,6,7,8-tetrahydroindolizine-1-carboxamide hydrochloride] | 115 | – | –
3 | Cn1ncc2cc(N(C(=O)c3cc(-c4cc5c(cc4C(=O)N4Cc6ccccc6C[C@H]4CN4CCOCC4)OCO5)n4c3CCCC4)c3ccc(O)cc3)ccc21 [Example 94, N-(4-Hydroxyphenyl)-N-(1-methyl-1H-indazol-5-yl)-3-(6-{[(3S)-3-(morpholin-4-ylmethyl)-3,4-dihydroisoquinolin-2(1H)-yl]carbonyl}-1,3-benzodioxol-5-yl)-5,6,7,8-tetrahydroindolizine-1-carboxamide hydrochloride] | 8.16 | – | –
27 | O=C(c1cc(-c2cc3c(cc2C(=O)N2Cc4ccccc4C[C@H]2CN2CCOCC2)OCCO3)n2c1CCCC2)N(c1ccccc1)c1ccc(O)cc1 [Example 34, N-(4-Hydroxyphenyl)-3-{7-[((3S)-3-(4-morpholinylmethyl)-3,4-dihydro-2(1H)-isoquinolinyl)carbonyl]-2,3-dihydro-1,4-benzdioxin-6-yl}-N-phenyl-5,6,7,8-tetrahydro-1-indolizine carboxamide hydrochloride] | 65.8 | – | –
9 | N#Cc1cccc(N(C(=O)c2cc(-c3cc(Cl)ccc3C(=O)N3Cc4ccccc4C[C@H]3CN3CCOCC3)n3c2CCCC3)c2ccc(O)cc2)c1 [Example 119, 3-(5-Chloro-2-{[(3S)-3-(morpholin-4-ylmethyl)-3,4-dihydroisoquinolin-2(1H)-yl]carbonyl}phenyl)-N-(3-cyanophenyl)-N-(4-hydroxyphenyl)-5,6,7,8-tetrahydroindolizine-1-carboxamide hydrochloride] | 31.6 | – | –
25 | O=C(c1cc(-c2cc(F)ccc2C(=O)N2Cc3ccccc3C[C@H]2CN2CCOCC2)n2c1COCC2)N(c1ccc(O)cc1)c1ccc(F)cc1 [Example 99, 6-(5-Fluoro-2-{[(3S)-3-(morpholin-4-ylmethyl)-3,4-dihydroisoquinolin-2(1H)-yl]carbonyl}phenyl)-N-(4-fluorophenyl)-N-(4-hydroxyphenyl)-3,4-dihydro-1H-pyrrolo[2,1-c][1,4]oxazine-8-carboxamide hydrochloride] | 213 | – | –
130 | Cn1ccc2cc(N(C(=O)c3cc(-c4cc(OC(F)(F)F)ccc4C(=O)N4Cc5ccccc5C[C@H]4CN4CCOCC4)n4c3CCCC4)c3ccc(O)cc3)ccc21 [Example 48, N-(4-Hydroxyphenyl)-N-(1-methyl-1H-indol-5-yl)-3-[2-[((3S)-3-(4-morpholinylmethyl)-3,4-dihydro-2(1H)-isoquinolinyl)carbonyl]-5-(trifluoromethoxy)-phenyl]-5,6,7,8-tetrahydro-1-indolizine carboxamide hydrochloride] | 229 | – | –
14 | Cn1ncc2cc(N(C(=O)c3cc(-c4cc(F)ccc4C(=O)N4Cc5ccccc5C[C@H]4CN4CCOCC4)n4c3CCCC4)c3ccc(O)cc3)ccc21 [Example 44, 3-{5-Fluoro-2-[((3S)-3-(4-morpholinylmethyl)-3,4-dihydro-2(1H)-isoquinolinyl)carbonyl]phenyl}-N-(4-hydroxyphenyl)-N-(1-methyl-1H-indazol-5-yl)-5,6,7,8-tetrahydro-1-indolizine carboxamide hydrochloride] | 45 | – | –

Structure (SMILES) | IC50 (Bcl-2 protein) [nM] | IC50 [1, 2] [nM] | IC50 ([1]; Homo sapiens, RS4-11, 48 h) [nM] | IC50 ([1]; RS4;11 cells, 48 hours exposure, MTT, concentration that inhibits cell viability by 50%) [nM]
O=C(c1cc(-c2cc3c(cc2C(=O)N2Cc4ccccc4C[C@H]2CN2CCOCC2)OCO3)n2c1CCCC2)N(c1ccc(O)cc1)c1ccc(O)cc1 [Example 6, N,N-bis(4-Hydroxyphenyl)-3-{6-[((3S)-3-(4-morpholinylmethyl)-3,4-dihydro-2(1H)-isoquinolinyl)carbonyl]-1,3-benzodioxol-5-yl}-5,6,7,8-tetrahydro-1-indolizine carboxamide hydrochloride] | 15 | – | 30 | –
C[C@H]1COC[C@H](C)N1C[C@@H]1Cc2ccccc2CN1C(=O)c1cc2c(cc1-c1cc(C(=O)N(c3ccc(O)cc3)c3ccc4c(ccn4C)c3)c3n1CCCC3)OCO2 [Example 17, 3-{6-[((3S)-3-{[(3S,5S)-3,5-Dimethylmorpholinyl]methyl}-3,4-dihydro-2(1H)-isoquinolinyl)carbonyl]-1,3-benzodioxol-5-yl}-N-(4-hydroxyphenyl)-N-(1-methyl-1H-indol-5-yl)-5,6,7,8-tetrahydro-1-indolizine carboxamide hydrochloride] | 81 | – | – | 120
